pIC50: −log10 of the molar value. Some results are limits rather than exact numbers.

The test system of one data set is U87.MGΔEGFR cells. Briefly: Resazurin reduction assay, U87.MGΔEGFR. The following applies: Homo sapiens, 72 h. The data set is classed as cell-based. An excerpt: (§1) The cell lines used in the present work, their origins and maintenance conditions were previously reported. In brief, drug-sensitive CCRF-CEM and multidrug resistant P-glycoprotein-over-expressing CEM/ADR5000 leukemia cells, MDA-MB-231-pcDNA3 breast cancer cells and their transfectant subline MDA-MB-231-BCRP clone 23, HCT116 (p53^+/+) colon cancer cells and its knockout clone HCT116 (p53^-/-), U87.MG glioblastoma multiform cells and their transfectant subline U87.MGΔEGFR as well as HEK293 human embryonic kidney cells transfected with or without a cDNA for ABCB5 were used. The human peripheral mononuclear cells (PMNC) were isolated from fresh blood samples of a healthy donor by using Histopaque® (Sigma-Aldrich, Taufkirchen, Germany).
(§2) Resazurin reduction assay was conducted to test the cytotoxicity of the compounds. This assay is based on the reduction of resazurin to resorufin by viable cells. […] Briefly, aliquots of 0.5×10^4 adherent cells which were allowed to attach overnight and 1×10^4 suspension cells per well were seeded in 96-well-plates with or without the addition of varying concentrations of the test substance to get a total volume of 200 μL/well. After 72 h incubation and addition of resazurin (Sigma-Aldrich) for 4 h, staining was measured by an Infinite M2000 ProTM plate reader (Tecan, Germany) using an excitation wavelength of 544 nm and an emission wavelength of 590 nm. […]

Data set [1] has as its system drug-sensitive CCRF-CEM leukemia cells. Briefly: Resazurin reduction assay, CCRF-CEM. The data set is classed as cell-based. As to conditions: Homo sapiens, 72 h.
Description: as §1
Resazurin reduction assay was conducted to test the cytotoxicity of the compounds. This assay is based on the reduction of resazurin to resorufin by viable cells. […] Briefly, aliquots of 0.5×10^4 adherent cells which were allowed to attach overnight and 1×10^4 suspension cells per well were seeded in 96-well-plates with or without the addition of varying concentrations of the test substance to get a total volume of 200 μL/well. After 72 h incubation and addition of resazurin (Sigma-Aldrich) for 4 h, staining was measured by an Infinite M2000 ProTM plate reader (Tecan, Germany) using an excitation wavelength of 544 nm and an emission wavelength of 590 nm. Each assay was independently performed for at least three times, with six parallel replicates each. The protocol has been recently reported. Fifty percent inhibition concentrations (IC50) represent the drug concentrations required to inhibit 50% of cell proliferation, which were fitted with nonlinear regression using GraphPad® Prism7.

Data set [2] has as its system mRNA expression (DUSP6, HHEX, MCMDC2, CRCP) in CCRF-CEM cells. Briefly: qPCR validation of microarray data. The data set is classed as cell-based, human. The following applies: CCRF-CEM treated vs untreated, normalized to GAPDH. The protocol:
Primer sequences of HHEX, MCMDC2 and CRCP were designed using NCBI and GenScript Real Time PCR Primer Design (https://www.genscript.com/ssl-bin/app/primer) websites. DUSP6, HHEX, MCMDC2 and CRCP primers were synthesized by Eurofins MWG Operon (Ebersberg, Germany) and their sequence specificities were checked by NCBI Primer-Blast (http://www.ncbi.nlm.nih.gov/tools/primer-blast). The reaction properties of primers were calculated by Eurofins genomics (https://www.eurofinsgenomics.eu/en/dna-rna-oligonucleotides/oligo-design-more/oligo-property-scan.aspx). The primer sequences were as follows: DUSP6, forward (5′–3′): […], reverse (5′–3′): […] [75]; HHEX, forward: […], reverse: […]; MCMDC2, forward: […], reverse: […]; CRCP, forward: […], reverse: […]. Total RNA was isolated by InviTrap Spin Universal RNA Mini kit (Stratec Molecular) according to the manufacturer’s instruction. One microgram RNA was converted to cDNA using RevertAid H Minus First Strand cDNA Synthesis Kit (Thermo Scientific). The mRNA levels were analyzed by using of 5×Hot Start Tag EvaGreen® qPCR Mix (no ROX) (Axon Labortechnik, Kaiserslautern, Germany) and CFX384™ Real-Time PCR Detection System (Bio-Rad, Munich, Germany). RT-PCR was performed with an initial denaturation at 95°C for 10 second followed by 40 cycles including strand separation at 95°C for 15 s, annealing at 62°C for 30 s and extension at […] for 1 min. The GAPDH, HPRT1 and RLP13 genes were used as housekeeping genes. The expression data were normalized using Bestkeeper software. […] Therefore, GAPDH was used for normalization. Forward and reverse primer sequences of GAPDH were […] for forward and […] for reverse, respectively.
Furthermore, forward and reverse primer sequences of HPRT1 were […] for forward and […] for reverse as well as of RLP13A were TATGCTGCCCCACAAAACC for forward and […] for reverse, respectively. • The quantification method was done as follow: • ΔCt = Ct gene test – Ct endogenous control. • ΔΔCt = ΔCt sample1 – ΔCt calibrator. • RQ = Relative quantification = 2-ΔΔCt.
The RQ is the fold-change compared to the calibrator (untreated sample, time zero, etc.). The calibrator has an RQ value of 1. All samples were compared to the calibrator.

The subject of data set [3] is HEK293 human embryonic kidney cells. The experiment in a line: Resazurin reduction assay, HEK293. As to conditions: 72 h. It counts as cell-based.
Description: as §1, §2

Data set [4] deals with U87.MG glioblastoma cells. The experiment in a line: Resazurin reduction assay, U87.MG. It counts as cell-based. The following applies: Homo sapiens, U-87 MG, 72 h.
Description: as §1, §2

Data set [5] concerns Human peripheral mononuclear cells (PMNC). The experiment in a line: Toxicity in normal cells, resazurin assay. The following applies: PMNC of a healthy donor, all concentrations tested 0.001-100 μM. The data set is classed as cell-based. The protocol:
We also investigated Aloe-emodin’s toxicity towards normal cells. Human peripheral mononuclear cells (PMNC) were isolated from fresh blood samples of a healthy donor and tested against various concentrations of Aloe-emodin ranging from 0.001-100 μM.
Normal human peripheral mononuclear cells (PMNC) were isolated from fresh blood samples of a healthy donor using Histopaque® (Sigma-Aldrich). In brief, 6 mL blood were layered with 6 mL Histopaque® and centrifuged (400 × g) for 30 min at 4°C. The opaque interface containing lymphocytes and other mononuclear cells was transferred into a new tube and washed several times. Isolated PMNCs were kept in Panserin 413 medium (PAN-Biotech, Aidenbach, Germany) supplemented with 2 % phytohemagglutinin M (PHA-M, Life Technologies, Darmstadt, Germany).
Resazurin reduction assay was conducted to test the cytotoxicity of the compounds. This assay is based on the reduction of resazurin to resorufin by viable cells. […] After 72 h incubation and addition of resazurin (Sigma-Aldrich) for 4 h, staining was measured by an Infinite M2000 ProTM plate reader (Tecan, Germany) using an excitation wavelength of 544 nm and an emission wavelength of 590 nm. […]

Data set [6] has as its system HCT116 (p53+/+) colon cancer cells. Briefly: Resazurin reduction assay, HCT116 (p53+/+). It counts as cell-based. The following applies: Homo sapiens, HCT-116, 72 h.
Description: as §1, §2

The subject of a further data set is CCRF-CEM cells. The experiment in a line: Detection of reactive oxygen species (H2DCFH-DA, flow cytometry). It counts as cell-based, human. The method, then: 2′,7′-Dichlorofluorescin diacetate (H2DCFH-DA, Sigma-Aldrich) is a cell-permeable non-fluorescent probe used to detect cellular ROS levels. In the presence of ROS, the compound is de-esterified intracellularly and converts into the highly fluorescent 2′,7′-dichlorofluorescein upon oxidation. Thus, it can be measured by flow cytometry. CCRF-CEM cells were re-suspended in PBS and incubated for 30 min withH2DCFH-DA at a concentration of 2 μM. After washing with PBS, the cells were treated with DMSO as negative control, H2O2 and doxorubicin as positive controls or varying concentrations of Aloe-emodin (0.5-, 1-, 2- and 4-fold IC50) for 1 h. The results were assessed by a BD Accuri™ C6 flow cytometer (Becton Dickinson) using FL-1 the channel (488 nm excitation). For each sample, 10^4 cells were counted. The protocol has been recently reported by us.

As to `O=C1c2cccc(O)c2C(=O)c2c(O)cc(CO)cc21` [Aloe-emodin], the pIC50 was 4.47 in the data set with U87.MGΔEGFR cells; 5.01 in data set [1]; 4.77 in data set [3]; 4.66 in data set [4]; 4.78 in data set [6]. Also, the “qPCR data (FC), CRCP” value in data set [2] was -2.63 FC. Moreover, in data set [2], the “qPCR data (FC), DUSP6” value stood at 1.40 FC. For the same molecule, the “qPCR data (FC), HHEX” value in data set [2] was 2.23 FC. Besides, the “qPCR data (FC), MCMDC2” value in data set [2] is given as -2.47 FC. Moreover, in data set [5], the “cytotoxic activity towards normal cells” value was “did not show cytotoxic activity”. For the same molecule, the “ROS production, fold changes” value in the data set with CCRF-CEM cells (0.5-, 1-, 2- or 4-fold IC50, 1 h, dose-dependent) is listed as not below 1.5 fold. For the same molecule, in the data set on CCRF-CEM cells (1 h, vs doxorubicin (1 μM) or H2O2 (250 μM)), the “ROS generation compared with positive controls” value is recorded as “even higher ROS generation than doxorubicin”.

Source of the values: PMC5915154, “Aloe-emodin as drug candidate for cancer therapy” (Oncotarget, 2018).
